# Reference: patent US20080306128A1, “Preparation of Hydrochloride Salts of Tetrazole Derivative” (priority 2004, published 2008)
# Assay: stability of the new salt form on longer heating at increased temperatures
# Type: physicochemical
smiles,measurement,value
CCCCC1=NC2(CCCC2)C(=O)N1Cc1ccc(-c2ccccc2-c2nnn[nH]2)cc1.Cl [2-butyl-1-[2′-(1H-tetrazol-5-yl)bifenyl-4-yl-methyl]spiro[2-imidazoline-4.1′-cyclopentane]-5-one hydrochloride],stability (decomposition on heating),does not decompose
